Like-named read-outs stand apart in the source and are kept apart here.
Key:
[1] = system: P. berghei-ANKA-GFP-LucCON liver stage parasites in HepG2-A16-CD81EGFP cells; assay: P. berghei liver stage Pb-Luc assay, Method 1 (UCSD, 1536-well); assay type: cell-based, Plasmodium berghei; details: Plasmodium berghei, 48 h, average of 2 wells, 1536-well plate; for activity at 1 µM: nominal 1 uM (10 mM stock), […] for 15 mM, 1.2 uM for 12 mM, 2 uM for 20 mM stock; for activity at 3 µM: nominal 3 uM (10 mM stock), 4.5 uM for 15 mM, 3.6 uM for 12 mM, 6 uM for 20 mM stock
[2] = system: Plasmodium falciparum Dd2 asexual blood stage parasites; assay: microbe, parasite or virus in culture; set-up: species or system Plasmodium falciparum Dd2 in human erythrocytes; single determination (one 11-point concentration-response curve); details: Plasmodium falciparum, DD2, Erythrocyte, 72 h; read-out: AC50
[3] = system: HepG2-A16-CD81EGFP cells; details: average of 2 wells, repeat 2; for HepG2 viability signal, 1 uM, repeat 2: nominal 1 uM (10 mM stock), […] for 15 mM, 1.2 uM for 12 mM, 2 uM for 20 mM stock; for HepG2 viability signal, 3 uM, repeat 2: nominal 3 uM (10 mM stock), 4.5 uM for 15 mM, 3.6 uM for 12 mM, 6 uM for 20 mM stock
[4] = in vitro; details: human, HepG2-A16-CD81EGFP cells, uninfected
[5] = repeat 1, read-out: Pb-Luc signal, 1 uM, repeat 1
[6] = repeat 2, read-out: Pb-Luc signal, 1 uM, repeat 2
[7] = repeat 3, read-out: Pb-Luc signal, 1 uM, repeat 3
[8] = repeat 1, read-out: Pb-Luc signal, 3 uM, repeat 1
[9] = repeat 2, read-out: Pb-Luc signal, 3 uM, repeat 2
[10] = repeat 3, read-out: Pb-Luc signal, 3 uM, repeat 3

Structure (SMILES)	activity at 1 µM [1, 5]	activity at 1 µM [1, 6]	activity at 1 µM [1, 7]	activity at 3 µM [1, 8]	activity at 3 µM [1, 9]	activity at 3 µM [1, 10]	AC50 [2]	HepG2 viability signal, 1 uM, repeat 2 [3]	HepG2 viability signal, 3 uM, repeat 2 [3]	viability at 48 h, 1 µM [4]	viability at 48 h, 3 µM [4]
CC(C)c1ccccc1Oc1c(C(F)(F)F)oc2c(CN3CCN(C)CC3)c(O)ccc2c1=O [NCGC00100597-01]	104%	108%	80.4%	67.9%	95.1%	69.5%	668 nM	96.39%	99.40%	101%	102%
CCN1CCN(Cc2c(O)ccc3c(=O)c(Oc4ccccc4C(C)C)c(C(F)(F)F)oc23)CC1 [NCGC00100599-01]	78.6%	113%	135%	70%	89.4%	121%	596 nM	96.13%	100.51%	97.5%	99.2%
CCCOC(=O)c1c(NC(=O)C(C)Sc2nc(-c3ccccc3)cc(C(F)(F)F)n2)sc(C(=O)N(C)C)c1C (stereo not drawn) [NCGC00101274-01]	94.7%	104%	101%	61.7%	98.3%	113%	1680 nM	104.19%	103.13%	98.8%	100%
CCN1CCN(Cc2c(O)ccc3c(=O)c(Oc4ccccc4Cl)c(C(F)(F)F)oc23)CC1 [NCGC00101484-01]	88.6%	66%	90.1%	93.5%	101%	77.7%	596 nM	99.03%	97.39%	99.8%	94.1%
CCc1ccc(Oc2c(C(F)(F)F)oc3c(CN4CCN(CC)CC4)c(O)ccc3c2=O)cc1 [NCGC00101506-01]	82.1%	87.1%	67%	64.2%	90%	40.1%	376 nM	92.46%	94.20%	92.4%	95.7%
CCOC(=O)c1ccc(NC2=CC(c3ccc(O)c(OCC)c3)N(c3ccc(C(=O)OCC)cc3)C2=O)cc1 (stereo not drawn) [NCGC00102600-01]	107%	140%	101%	117%	126%	113%	3350 nM	100.94%	102.23%	98.6%	101%
Cc1ccc(C)c(Cn2c(=O)n(CCCCC(=O)NCc3ccc4c(c3)OCO4)c(=O)c3ccccc32)c1 [NCGC00106276-01]	69%	120%	109%	132%	95.7%	87.2%	6680 nM	102.61%	103.78%	99.1%	93.3%
CN1CCN(C(=O)c2ccc3c(c2)N(Cc2ccc(C(F)(F)F)cc2)C(=O)c2ccccc2S3)CC1 [NCGC00108242-01]	104%	123%	103%	91%	99.2%	92.4%	531 nM	102.88%	103.88%	99.8%	101%
CCN1CCN(C(=O)c2ccc3c(c2)N(Cc2ccc(Cl)cc2)C(=O)c2ccccc2[S+]3[O-])CC1 (stereo not drawn) [NCGC00109464-01]	104%	92.1%	102%	83.2%	80.5%	103%	668 nM	105.55%	102.35%	110%	108%
CCN1CCN(C(=O)c2ccc3c(c2)N(Cc2ccccc2F)C(=O)c2ccccc2[S+]3[O-])CC1 (stereo not drawn) [NCGC00109528-01]	102%	105%	110%	94.3%	116%	97.6%	841 nM	95.20%	97.54%	101%	98.8%
Cc1ccc2oc(=O)c3cnn(CC(=O)Nc4cccc(C(F)(F)F)c4)c3c2c1 [NCGC00110933-01]	106%	124%	113%	86.9%	117%	100%	2660 nM	99.44%	101.21%	94%	94.8%
Cc1ccc(CN2COc3cc(C)c4c(oc(=O)c5ccccc54)c3C2)cc1 [NCGC00116336-01]	94.2%	106%	96.8%	71.6%	78.2%	92.4%	1330 nM	104.57%	104.67%	101%	105%
COc1ccc(-c2cc(=O)oc3c4c(ccc23)OCN(Cc2ccccc2)C4)cc1 [NCGC00116344-01]	71.5%	126%	103%	62.6%	101%	76.9%	2990 nM	95.59%	97.26%	98.2%	101%
COc1ccccc1CN1COc2ccc3c(oc(=O)c4ccccc43)c2C1 [NCGC00116378-01]	85.6%	85.1%	110%	73.3%	86.8%	88.1%	2110 nM	104.93%	105.29%	106%	108%
Cn1nnnc1SCCCNCc1cccc(OCc2ccccc2)c1 [NCGC00117957-01]	78.6%	108%	127%	58.9%	94%	87.5%	9440 nM	101.95%	103.35%	97.9%	101%

Reference: PMC7822874, “Chemoprotective antimalarials identified through quantitative high-throughput screening of Plasmodium blood and liver stage parasites” (Scientific Reports, 2021)
